Patent publication US6391324B1, “Cosmetic skin care compositions containing pulegone” (Unilever Home & Personal Care USA, Division of Conopco, priority 2000, dated 2002)

Assays:
Assay type in all cases: cell-based
human keratinocytes [1] = test: Transglutaminase (TG-1) Assay; settings: for TG-1/DNA % of CONTROL / TG-1/DNA (Absorbance/Arbitrary Units of DNA ± Standard Deviation): three days
Description: (§1) Normal human keratinocytes, isolated from neonatal foreskin by trypsin treatment, were grown in Dulbecco's Modified Eagle's Medium (DMEM, Life Technologies, Grand Island, N.Y.) with 10% fetal bovine serum in the presence of irradiated mouse fibroblasts for establishing dividing keratinocyte colonies. Cells were incubated until their second passage and stored at −70° C. for future use. All incubations took place at 37° C. with 5% CO2. Frozen second passage keratinocytes were thawed and plated in T-175 flasks (Corning, Corning, N.Y.) with DMEM and grown for five days. After reaching 80% confluence, they were trypsinized and seeded into 6-well plates containing keratinocyte growth medium (KGM, Clonetics, San Diego, Calif.) with 0.15 mM calcium.
A sample of the keratinocytes grown in the keratinocyte culture described above, were placed in KGM (2 ml per well) at 0.2 million cells/plate in 6-well plates and re-grown for five days until the cells reached approximately […], since TG-1 only begins to become expressed after confluence. […] One set of triplicate wells was left untreated to serve as control. After three days of incubation, cells were washed thoroughly with phosphate buffered saline (PBS, 10 mM sodium phosphate, 138 mM sodium chloride, 2.7 mM potassium chloride, pH 7.4) and placed at −70° C. for 2 hours. Cells were then thawed for two hours. The DNA content of cells was quantified by using the DNA-binding fluorophore, bis-benzimidazole (Hoechst 33258) and measuring the specific fluorescence of the DNA-bound fluorophore (360 nm excitation, 450 nm emission). Cellular TG-1 levels were determined by using a transglutaminase-1 (TG-1) specific monoclonal antibody as the primary antibody (BC1, Amersham, UK) and a peroxidase labeled rabbit antimouse IgG as the secondary antibody (Amersham, UK). The plates were blocked at room temperature with 5% nonfat milk in Tris-buffered saline (TBS, 10 mM Tris, 150 mM NaCL, pH 8.0) for one hour followed by two hours incubation with the primary antibody (1:4000 dilution) in 1% milk/TBS at room temperature. After rinsing the plates three times with 1% milk/TBS containing 0.05% Tween 20 (Bio-Rad, Hercules, Calif.), the plates were incubated with a 1:4000 dilution of the secondary antibody at room temperature for two hours. The plates were then rinsed three times with 1% milk/0.05% Tween 20/TBS and three times with PBS. Color was developed by incubation with o-phenylene-diamine (Sigma, St. Louis, Mo.) and hydrogen peroxide (Sigma) dissolved in a 1:1 mixture of 0.2 M dibasic sodium phosphate (Sigma) and 0.1 M citric acid at pH 5.0(Sigma). Solutions were transferred to 4 mL plastic cuvets (Fisher Scientific, Pittsburgh, Pa.) and the absorbance was read at 492 nm on an Ultraspec 3000 spectrophotometer (Pharmacia, Piscataway, N.J.) and TG-1 levels were expressed as absorbence/DNA fluoroscence.
(§2) Concentrations used in the examples below are of pulegone in a corn oil droplet. The in vitro concentration may not be relevant to in vivo concentration because there is partitioning between the oil and the culture medium. The medium concentration of the active is not the oil droplet concentration of the active. For the pulegone to elicit its effect on the cultured cells, it must diffuse out of the corn oil into the culture medium where it is then accessible to the cells. The pulegone concentration in the culture medium is therefore considerably less than the concentration in the corn oil droplet.

human keratinocytes [2] = test: Glucose Uptake Assay (3H 2-deoxy-glucose); settings: for GLUCOSE UPTAKE % of CONTROL / GLUCOSE UPTAKE (cpm/μg PROTEIN ± S.D.): 4 hours preincubation
Description: as §1
A sample of the keratinocytes grown in the keratinocyte culture described above, were plated in KGM medium at either 0.5 or 1 million cells/plate in six well plates and incubated for 4 days. The medium was then aspirated, and the wells were rinsed twice with Phosphate Buffered Saline (PBS), then the plates were incubated (1 mL/well) for 24 hours. The medium was replaced with fresh KBM, 10 μl of corn oil containing pulegone at various concentrations were added and cells were allowed to incubate (for 4 hours at 37° C.) before 2 μCi of ^3H 2-deoxy-glucose (Amersham, UK) were added to each well. Samples were then incubated for one hour. The medium was aspirated and wells were rinsed three times with PBS before the addition of 500 μL of 0.1N NaOH/well. After 10 minutes of agitation on a shaker, a 25 μL aliquot was removed for protein analysis, and 200 μL were transferred to a scintillation vial containing 5 mL Scintillation cocktail (Scintiverse) and counting was performed on a Beckman counter. ^3H-Glucose uptake results were expressed as CPM/μg protein.
as §2

human keratinocytes [3] = test: Lipid Analysis (ceramides expression); settings: for CERAMIDES % of CONTROL / CERAMIDES (ng/μg PROTEIN ± S.D.): three days
Description: as §1
A sample of the keratinocytes that were grown in the keratinocyte culture described above were placed in KGM (2 ml per well) at 0.2 million per 6-well plates and re-grown for five days until approximately 20% confluence was reached. Cells were fed and treated with pulegone as described above for the TG-1 Assay. After three days of treatment, cells were rinsed twice with PBS, then harvested by adding 3 ml of 0.1 N NaOH (Fisher) to each well and scraping with a rubber policeman. The supernatants were transferred to 16 mm×100 mm glass test tubes with teflon-coated caps and incubated for 1 hour at 70° C. After cooling to room temperature, a 50 μl aliquot was removed for protein determination (Pierce BCA assay, Rockford, Ill.). To each tube 320 μl of 1 N HCl and 2.5 ml of chloroform were added and the tubes mixed well. The tubes were then placed on a tumbler and agitated for thirty minutes. The mixtures were then centrifuged for 10 minutes at 2000×g. 2 mL of chloroform were removed from the organic phase and placed in an autosampler vial. The samples were then dried evaporated under N2, resuspended in 60 μl of chloroform:methanol 2:1 and transferred to an autosampler insert microtube which was placed inside another autosampler vial whcih was sealed. 40 μl of the sample was spotted (Camag Automatic TLC Sampler III, Wilmington, N.C.) on silica TLC plates (Whatman 4807-700) and the plates were developed in horizontal chambers (Camag) using the following solvent system: 1. 95:4.5:0.5 chloroform, methanol, acetic acid and 2. 60:40:2 hexane, ethyl ether, acetic acid. Following immersion in 10% copper sulfate in 8% phosphoric acid, plates were charred at 165° C. for 20 minutes and then read in a densitometer (Camag TLC Scanner II). The results were expressed in ng cermaides/μg protein.
as §2

[4] = pulegone 1% in corn oil droplet
[5] = pulegone 2.5% in corn oil droplet
[6] = pulegone 5% in corn oil droplet

SMILES: CC(C)=C1CCC(C)CC1=O (stereo not shown) [Pulegone, 5-Methyl-2-(1-methylethylidene)cyclohexanone]
- TG-1/DNA % of CONTROL (human keratinocytes [1]; [4]): 121%
- TG-1/DNA (Absorbance/Arbitrary Units of DNA ± Standard Deviation) (human keratinocytes [1]; [4]): 15.45 ± 2.32 Absorbance/Arbitrary Units of
- TG-1/DNA % of CONTROL (human keratinocytes [1]; [5]): 196%
- TG-1/DNA (Absorbance/Arbitrary Units of DNA ± Standard Deviation) (human keratinocytes [1]; [5]): 24.96 ± 4.85 Absorbance/Arbitrary Units of
- TG-1/DNA % of CONTROL (human keratinocytes [1]; [6]): 286%
- TG-1/DNA (Absorbance/Arbitrary Units of DNA ± Standard Deviation) (human keratinocytes [1]; [6]): 36.40 ± 0.89 Absorbance/Arbitrary Units of
- transglutaminase-1 expression in comparison to untreated keratinocytes (human keratinocytes [1]; pulegone at 2.5% and 5% in corn oil): increased transglutaminase-1 expression
- GLUCOSE UPTAKE % of CONTROL (human keratinocytes [2]; [4]): 77%
- GLUCOSE UPTAKE (cpm/μg PROTEIN ± S.D.) (human keratinocytes [2]; [4]): 3.71 ± 0.35 cpm/μg PROTEIN
- GLUCOSE UPTAKE % of CONTROL (human keratinocytes [2]; [6]): 189%
- GLUCOSE UPTAKE (cpm/μg PROTEIN ± S.D.) (human keratinocytes [2]; [6]): 9.14 ± 0.69 cpm/μg PROTEIN
- glucose uptake (human keratinocytes [2]; pulegone in corn oil): significantly increased glucose uptake
- CERAMIDES % of CONTROL (human keratinocytes [3]; [4]): 65%
- CERAMIDES (ng/μg PROTEIN ± S.D.) (human keratinocytes [3]; [4]): 8.97 ± 1.17 ng/μg PROTEIN
- CERAMIDES % of CONTROL (human keratinocytes [3]; [5]): 171%
- CERAMIDES (ng/μg PROTEIN ± S.D.) (human keratinocytes [3]; [5]): 23.8 ± 11.0 ng/μg PROTEIN
- CERAMIDES % of CONTROL (human keratinocytes [3]; [6]): 308%
- CERAMIDES (ng/μg PROTEIN ± S.D.) (human keratinocytes [3]; [6]): 42.8 ± 6.91 ng/μg PROTEIN
- expression of ceramides in comparison to untreated keratinocytes (human keratinocytes [3]; pulegone in corn oil): increased expression of ceramides
